The source of these data is patent US8859574B2 (IRM LLC, priority 2008, dated 2014).

The structures appear in SMILES notation.

The target in this assay is T1, IGF-1R Ba/F3 (Homo sapiens, UniProt P08069).
T1 construct: fused on or other part: TEL- (or BCR-) IGF-1R in Ba/F3: the kinase part holds the site
T1 sequence (P08069 999-1274 limits assumed): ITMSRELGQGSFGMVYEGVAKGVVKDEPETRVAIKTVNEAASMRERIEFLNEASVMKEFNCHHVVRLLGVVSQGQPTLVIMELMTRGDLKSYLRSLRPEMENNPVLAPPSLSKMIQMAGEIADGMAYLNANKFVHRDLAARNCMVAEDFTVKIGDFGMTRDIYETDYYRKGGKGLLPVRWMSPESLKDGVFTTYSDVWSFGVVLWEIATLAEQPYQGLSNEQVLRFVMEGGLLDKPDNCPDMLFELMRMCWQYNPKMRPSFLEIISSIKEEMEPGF
The assay is described as follows: Ba/F3 Cell Viability Inhibition Assay (IGF-1R Ba/F3). The following applies: Tel-TK transformed Ba/F3 cells, 48 hours, Britelite luminescence. The class given is cell-based, murine. The essentials: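 A 48 h compound treatment at 37 °C (3750 cells/well) was followed by Britelite luminescence to measure viability. Cells were Ba/F3 pro-B cells, IL-3-independent via TEL-fused IGF-1R kinase transduction. A logistic fit gave IC50 as 50% viability relative to DMSO control.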
In turn, `Cc1cc(Nc2nc(Nc3cc(Cl)c(C4CCN(C(=O)CN(C)C)CC4)cc3C)ncc2Cl)n[nH]1` [Compound 74, 1-(4-(2-chloro-4-(5-chloro-4-(5-methyl-1H-pyrazol-3-ylamino)pyrimidin-2-ylamino)-5-methylphenyl)piperidin-1-yl)-2-(dimethylamino)ethanone] returned an IC50 of 7 nM.

In turn, `Cc1cc(Nc2nc(Nc3cc(C)c(C4CCOC(=O)C4)cc3C)ncc2Cl)n[nH]1` (stereo not drawn) [Compound 152, 4-(4-(5-chloro-4-(5-methyl-1H-pyrazol-3-ylamino)pyrimidin-2-ylamino)-2,5-dimethylphenyl)tetrahydro-2H-pyran-2-one] registered an IC50 of 155 nM. This IC50 is about 22-fold higher than that of the compound before.

For the compound `Cc1cc(Nc2nc(Nc3cc(C)c(C4CCN(C)CC4)cc3C)ncc2Cl)n[nH]1` [Compound 6, 5-chloro-N2-(2,5-dimethyl-4-(1-methylpiperidin-4-yl)phenyl)-N4-(5-methyl-1H-pyrazol-3-yl)pyrimidine-2,4-diamine], the IC50 came out at 15 nM.

Compound `CNC(=O)CN1CCC(c2cc(C)c(Nc3ncc(Cl)c(Nc4cc(C)[nH]n4)n3)cc2OC)CC1` [Compound 46, 2-(4-(4-(5-chloro-4-(5-methyl-1H-pyrazol-3-ylamino)pyrimidin-2-ylamino)-2-methoxy-5-methylphenyl)piperidin-1-yl)-N-methylacetamide] yielded an IC50 of 13 nM.

The compound `Cc1cc(Nc2nc(Nc3cc(C)c(C4CCN(C)CC4)cc3OC(C)C)ncc2C)n[nH]1` [Compound 5, N2-(2-isopropoxy-5-methyl-4-(1-methylpiperidin-4-yl)phenyl)-5-methyl-N4-(5-methyl-1H-pyrazol-3-yl)pyrimidine-2,4-diamine] came in with an IC50 of 805 nM.

In turn, `Cc1cc(Nc2nc(Nc3cc(C)c(C4CCN(C(=O)[C@@H]5COCCN5)CC4)cc3F)ncc2Cl)n[nH]1` [Compound 143, (S)-(4-(4-(5-chloro-4-(5-methyl-1H-pyrazol-3-ylamino)pyrimidin-2-ylamino)-5-fluoro-2-methylphenyl)piperidin-1-yl)(morpholin-3-yl)methanone] returned a half-inhibitory concentration (IC50) of 71 nM.

Compound `Cc1cc(Nc2nc(Nc3cc(C)c([C@H]4COC(=O)N4)cc3C)ncc2Cl)n[nH]1` [Compound 230, (S)-4-(4-(5-chloro-4-(5-methyl-1H-pyrazol-3-ylamino)pyrimidin-2-ylamino)-2,5-dimethylphenyl)oxazolidin-2-one] yielded an IC50 of 40 nM.

Compound `CCc1cc(Nc2nc(Nc3cc(C)c(C4CCN(CC(N)=O)CC4)cc3F)ncc2Cl)n[nH]1` [Compound 263, 2-(4-(4-(5-chloro-4-(5-ethyl-1H-pyrazol-3-ylamino)pyrimidin-2-ylamino)-5-fluoro-2-methylphenyl)piperidin-1-yl)acetamide] yielded an IC50 of 33 nM.

In turn, `Cc1cc(Nc2nc(Nc3cc(C)c(C4CCNC(=O)C4)cc3C)ncc2Cl)n[nH]1` (stereo not drawn) [Compound 151, 4-(4-(5-chloro-4-(5-methyl-1H-pyrazol-3-ylamino)pyrimidin-2-ylamino)-2,5-dimethylphenyl)piperidin-2-one] came in with an IC50 of 9 nM.

In the case of `Cc1cc(Nc2nc(Nc3cc(C)c(C4CCN(C(=O)CN5CCC5)CC4)cc3F)ncc2Cl)n[nH]1` [Compound 98, 2-(azetidin-1-yl)-1-(4-(4-(5-chloro-4-(5-methyl-1H-pyrazol-3-ylamino)pyrimidin-2-ylamino)-5-fluoro-2-methylphenyl)piperidin-1-yl)ethanone], the half-inhibitory concentration (IC50) is 64 nM.

In turn, `CCc1cc(Nc2nc(Nc3cc(C)c(C4CCN(C5CS(=O)(=O)C5)CC4)cc3F)ncc2Cl)n[nH]1` [Compound 264, 5-Chloro-N2-{4-[1-(1,1-dioxo-1λ6-thietan-3-yl)-piperidin-4-yl]-2-fluoro-5-methyl-phenyl}-N4-(5-ethyl-1H-pyrazol-3-yl)-pyrimidine-2,4-diamine] registered an IC50 of 21 nM.

The compound `Cc1cc(Nc2nc(Nc3cc(C)c(C4CCN(C(=O)c5oc(C)nc5C)CC4)cc3F)ncc2Cl)n[nH]1` [Compound 127, (4-(4-(5-chloro-4-(5-methyl-1H-pyrazol-3-ylamino)pyrimidin-2-ylamino)-5-fluoro-2-methylphenyl)piperidin-1-yl)(2,4-dimethyloxazol-5-yl)methanone] yielded an IC50 of 27 nM.

For the compound `Cc1cc(Nc2nc(Nc3cc(C)c(C4CCN(C(=O)CN(C)C)CC4)cc3F)ncc2Cl)n[nH]1` [Compound 73, 1-(4-(4-(5-chloro-4-(5-methyl-1H-pyrazol-3-ylamino)pyrimidin-2-ylamino)-5-fluoro-2-methylphenyl)piperidin-1-yl)-2-(dimethylamino)ethanone], half-maximal inhibition (IC50) required 19 nM.

`Cc1cc(Nc2ncc(Cl)c(N[C@H]3CCCCNC3=O)n2)c(F)cc1C1CCN(C)CC1` (single isomer, unassigned) [Compound 10]: the IC50 was found to be 869 nM.

On to `CNC(=O)CN1CCCCC1c1cc(C)c(Nc2ncc(Cl)c(Nc3cc(C)[nH]n3)n2)cc1C` (stereo not drawn) [Compound 182, 2-(2-(4-(5-chloro-4-(5-methyl-1H-pyrazol-3-ylamino)pyrimidin-2-ylamino)-2,5-dimethylphenyl)piperidin-1-yl)-N-methylacetamide], for which the IC50 was 19 nM. This IC50 lies about 46-fold lower than the previous one.

Compound `Cc1cc(Nc2nc(Nc3cc(C4CCN(CCC(F)(F)F)CC4)c(F)cc3C)ncc2Cl)n[nH]1` [Compound 28, 5-chloro-N2-(4-fluoro-2-methyl-5-(1-(3,3,3-trifluoropropyl)piperidin-4-yl)phenyl)-N4-(5-methyl-1H-pyrazol-3-yl)pyrimidine-2,4-diamine] returned an IC50 of 5460 nM.

Take `Cc1cc(Nc2nc(Nc3cc(C)c(C4CCN(CCS(=O)(=O)N(C)C)CC4)cc3F)ncc2Cl)n[nH]1` [Compound 58, 2-(4-(4-(5-chloro-4-(5-methyl-1H-pyrazol-3-ylamino)pyrimidin-2-ylamino)-5-fluoro-2-methylphenyl)piperidin-1-yl)-N,N-dimethylethanesulfonamide]: it took 36 nM to reach half-maximal inhibition (IC50).

For `Cc1cc(Nc2nc(Nc3cc(C)c(C4CCN(Cc5c(C)noc5C)CC4)cc3C)ncc2Cl)n[nH]1` [Compound 20, 5-chloro-N2-(4-(1-((3,5-dimethylisoxazol-4-yl)methyl)piperidin-4-yl)-2,5-dimethylphenyl)-N4-(5-methyl-1H-pyrazol-3-yl)pyrimidine-2,4-diamine], the IC50 was 11 nM.

Compound `Cc1cc(Nc2nc(Nc3cc(C)c(C4CCN([C@@H]5CCN(S(C)(=O)=O)C5)CC4)cc3F)ncc2Cl)n[nH]1` [Compound 312, (R)-5-chloro-N2-(2-fluoro-5-methyl-4-(1-(1-(methylsulfonyl)pyrrolidin-3-yl)piperidin-4-yl)phenyl)-N4-(5-methyl-1H-pyrazol-3-yl)pyrimidine-2,4-diamine] came in with an IC50 of 25 nM.

On to `Cc1cc(Nc2nc(Nc3cc(C)c(C4CCN(C(=O)[C@@H]5CC(O)CN5C)CC4)cc3F)ncc2Cl)n[nH]1` (stereo partly drawn) [Compound 128, (4-(4-(5-chloro-4-(5-methyl-1H-pyrazol-3-ylamino)pyrimidin-2-ylamino)-5-fluoro-2-methylphenyl)piperidin-1-yl)((2S)-4-hydroxy-1-methylpyrrolidin-2-yl)methanone], for which inhibition was half-maximal at 175 nM (IC50).

For `Cc1cc(Nc2nc(Nc3cc(C)c(C4CCN(Cc5ccncc5)CC4)cc3C)ncc2Cl)n[nH]1` [Compound 309, 5-chloro-N2-(2,5-dimethyl-4-(1-(pyridin-4-ylmethyl)piperidin-4-yl)phenyl)-N4-(5-methyl-1H-pyrazol-3-yl)pyrimidine-2,4-diamine], the midpoint of inhibition, the IC50, lay at 8 nM. Compared with the last compound, the IC50 is about 22-fold lower.
